Test results taken from patent publication EP0335902B1, “MONOMERIC PHTHALOCYANINE REAGENTS” (BRITISH TECHNOLOGY GROUP USA INC., priority 1986, dated 1988).
Where two headings read alike, the source gives them in different places.

Columns and labels:
[1] = solubility of aluminum phthalocyanines in water and solvents; settings: for solubility in polar, protic solvents such as methanol: effect of axial ligand L
Description: The following "R" substituents (R₁ and/or R₂) bound to the phthalocyanine macrocycle 1 can serve as suitable water-solubilizing moieties: sulfonic acid groups (-SO₃H), sulfonate groups (-SO₃⁻, X⁺), carboxylic acid groups (-CO₂H), carboxylate groups (-CO₂⁻, X⁺), phosphoric acid groups (-PO₄H₂), phosphate groups (-PO₄⁻⁻, 2X⁺), phosphonate groups (-PO₃H or -PO₃⁻, X⁺), hydroxy or phenoxy groups (-OH), amino groups (-NH₂), and ammonium and pyridinium groups (-NR₄⁺, X⁻).
To enhance water solubility, L should be -OZ or -NZ₂ wherein Z is selected from among hydrogen, alkyl, acyl, and silyl groups, the latter three preferably being charged.

[2] = test system: antimorphine monoclonal antibody; assay: competition experiment with antimorphine monoclonal antibody and tritium-labeled morphine (relative immunoaffinity); assay type: binding
Experimental: The relative immunoaffinity of morphine, the amino morphine analog, and the amino-morphine derivative of mono-PABA-sulfonyl aluminum phthalocyanine disulfonate was determined in a competition experiment with antimorphine monoclonal antibody and tritium-labeled morphine.

[3] = λmax 678.5 nm, in chloronaphthalene; cited from earlier work
[4] = fluorescence and UV-VIS spectroscopy of phthalocyanine derivatives; assay type: physicochemical
Description: As a family of chromophores the metallophthalocyanines are characterized by a very narrow and strong absorption in the red envelope centered around 670 nm (Eo=230,000) and a broad and less intense absorption (Eo=60,000) at around 350 nm.
It is contemplated that other metal atoms (M) with +3 valences or higher may take on an axial ligand(s) in the phthalocyanine macrocycle, thereby conferring a similar resistance to aggregation in aqueous solution. For use as fluorescent species, the metal should be diamagnetic and have a lower atomic weight than that of […], so as to avoid a heavy-atom quenching effect; suitable metal atoms for the latter purpose include aluminum, silicon, phosphorus, gallium, germanium, and tin. […] Both processes give rise to radiationless deactivation of the excited state and serve to decrease the fluorescent quantum yield.
The ultimate sensitivity of a fluorogenic enzyme assay is determined by the spectral properties of the generated fluorophore.

[5] = assay type: physicochemical
Experimental: The phthalocyanines are thermally stable, and are often purified by sublimation at temperatures greater than 400°C. Chemically, the phthalocyanines are resistant to acidic or basic hydrolysis, oxidation, and reduction.

Question: For `[Cl][Al]1[n]2c3c4ccccc4c2/N=C2N=C(/N=c4/c5ccccc5/c([n]41)=N/C1=NC(=N\3)/c3ccccc31)c1ccccc1\2` [chloraluminum phthalocyanine], which “solubility in polar, protic solvents such as methanol” value [1] is on record?
Answer: but not chloraluminum phthalocyanine is soluble in polar, protic solvents

Question: With `CN1CC[C@]23c4c5ccc(O)c4O[C@H]2[C@@H](O)C=C[C@H]3[C@H]1C5` [morphine, reference compound] as the compound, how does the “Relative Affinity” value [2] read?
Answer: 1

Question: Which “molar absorptivity ε” value [3] does the source give for `c1ccc2c(c1)C1=NC2=Nc2c3ccccc3c3[n]2[Cu][n]2c(c4ccccc4c2=NC2=NC(=N3)c3ccccc32)=N1` [compound 9, Copper phthalocyanine] here?
Answer: 218,500

Question: What does the source list for aluminum phthalocyanine trisulfonate?
Answer: Stokes shift [4]: 335 nm; fluorescence emission lifetime [4]: 5 ns; polarization coefficient [4]: 0.005; quantum yield when aggregated ([4]; aggregated): < 0.02; quantum yield when aggregated, of its original value ([4]; aggregated): less than 4%; emission wavelength ([4]; excitation at 350 nm): 680 nm; solubility in water [1]: high water solubility; photochemical stability [5]: photochemically inert

Question: Which “Relative Affinity” value ([2]; relative affinity of antimorphine monoclonal antibody for competitor versus tritium-labeled morphine) does the source give for “3-(4-aminobutyl)morphine [amino morphine]” here?
Answer: 1

Question: With `[OH][Al]1[n]2c3c4ccccc4c2N=C2N=C(N=c4c5ccccc5c([n]41)=NC1=NC(=N3)c3ccccc31)c1ccccc12` [hydroxyaluminum phthalocyanine] as the compound, how does the “solubility in polar, protic solvents such as methanol” value [1] read?
Answer: soluble in polar, protic solvents such as methanol

Question: With `[OH][Al]1[n]2c3c4ccccc4c2N=C2N=C(N=c4c5ccccc5c([n]41)=NC1=NC(=N3)c3ccccc31)c1ccccc12` [aluminum phthalocyanine, reference compound] as the compound, how does the Stokes shift [4] read?
Answer: 330 nm

Question: What about the solubility in water ([1]; water) of the same compound?
Answer: poorly soluble in water

Question: With “copper(II)phthalocyanine trisulfonate [reference compound]” as the compound, how does the “fluorescence quantum yield relative to aluminum(III)phthalocyanine trisulfonate” value ([4]; comparative example) read?
Answer: more than 200 times less
